Reference: patent US5498624A, “Selected pyrazolyl derivatives” (Monsanto Company, priority 1995, dated 1996)

What was measured:
[1] = system: Erysiphe graminis f. sp. tritici; test: Wheat Powdery Mildew Foliar Curative Treatment (WPM Cur); format: in vivo; conditions: 20 ppm foliar curative, inoculation 48 hours prior to application
Description: A) Pathogen/Inoculum Production follow as per Example 2. (B) Host Propagation, (C) Compound Preparation and (D) Compound Application follow as per Example 1.
E) Inoculation/Incubation--Inoculation is accomplished as per Example 1, 48 hours prior to compound application. The incubation period is temporarily interrupted for chemical treatment, the plants are allowed to dry and then returned to the incubation chamber.
(G) Evaluation and (H) Data follow as per Example 1. The percent protection values for the compounds of the present invention are as set out in the Table below.

[2] = system: Uncinula necator; test: Vine Powdery Mildew Foliar Assay (VPM Prot); format: in vivo; conditions: vine seedlings
Description: A) Pathogen/Inoculum--Vine powdery mildew, caused by Uncinula necator, is an obligate parasite and must be maintained on a living host. Seedling leaves (2-5 leaf stage) of Vitis vinifera var. Carignane, are inoculated by brushing them with the leaves of infected plants. Incubation environment is the same as that described for incubation (Sec. D).
B) Host Propagation- Approximately 60 gm of seed are removed from cold storage and soaked in water for 2-3 days with frequent (3 or more) water changes each day. They are then combined with 24 gm of vermiculite and 30 ml of distilled water and put into refrigeration for 4-5 weeks. After this `vernalization` period, they are planted, 3 seeds/pot, into individual 2.25" pots filled with a commercial potting mix. The pots are watered well, and placed into a growth chamber set at 24° C., 85% RH and a 12 hour photoperiod at 200-300 me/m^2 /sec. The seedlings are thinned to one seedling/pot approximately 14 days after planting. After four to five additional days, seedlings are moved to the greenhouse. Plants are ready for assay 4-6 weeks after planting.
C) Test Compound Preparation
1) Experimental compounds--A final formulation of each of the compounds of the present invention in 20% acetone, 0.1% Tween®20 and 79.9% water is foliarly applied to the seedling vines at about 1.5 mls/pot (4 pots/treatment) using a DeVilbiss 152 sprayer at the rate of 100, 20 and 10 ppm. The seedlings have 2-4 true leaves at application. Treated pots are allowed to dry in a vented room and are then moved to the inoculation growth chamber (see Sec. D for settings).
2) Controls and standards--The commercial product RALLY=NOVA (myclobutanil)is used as an internal standard. Formulated myclobutanil 40 WP is applied at 100 and 20 ppm in water. Also included in the test is an inoculated control treatment (a water/acetone formulation blank).
D) Inoculation/Incubation--Treated vines are inoculated 24 hours after chemical application. Several diseased leaves are removed from inoculum production plants and are very gently brushed on the leaves of the test plants. This gentle contact and agitation allows spores to be dislodged from diseased leaves and fall onto test plant leaves.
The inoculation/incubation growth chamber is set at 24° C., 85% RH, and 12 hour photoperiod at 350 me/m^2 /sec.
E) Evaluation--The test is rated 7-9 days after inoculation or upon maximum disease expression. Percent area infected with disease is determined for each replicate. Treatment means are calculated and percent disease control is determined by the formula "(control mean--treatment mean) * 100 / control mean". The untreated/inoculated control treatment is used for this calculation. […]

[3] = system: Venturia inaequalis; test: In Vitro Apple Scab Assay (ASC In Vitro); format: cell-based; conditions: germ tube length
Description: A) Pathogen/Inoculum Production--A suspension of Venturia inaequalis conidia, adjusted to 150,000 spores/ml, is prepared using freshly harvested or frozen conidia. Apple seedlings, cv. McIntosh, are sprayed with this suspension and incubated in a high humidity chamber set at 20° C. with a 12 hour photoperiod for approximately four weeks. At maximum disease expression, a fine mist of deionized water is used to wash conidia from sporulating lesions and the resulting liquid/spore suspension is collected into glass vials and frozen at -80° C. for future use.
B) Compound Preparation--Water agar with 1.5% agar m/v is autoclaved to sterilization. Stock solutions of each compound of the present invention are made by solubilizing them in an appropriate solvent at a convenient concentration. Serial dilutions in solvent are made from this stock to execute the various test rates. When the molten agar is cool enough to pour, the compounds in solvent are dispensed into the agar such that the final concentration ratio of agar to solvent is 100:1. The agar is gently agitated and poured into petri plates, one plate per treatment. The standard used is 3-(difluoromethyl)-N-2,3-dihydro-1,1,3-trimethyl-1H-inden-4-yl)-1-Methyl-1H-Pyrazole-4-carboxamide as found in U.S. Pat. No. 5,093,347.
C) Test Execution--Twenty-four hours after pouring, the plates are ready for inoculation. The previously collected frozen spore suspension is thawed at room temperature and diluted to a concentration of 1×10^4 spores/ml with sterile water. Three drops of approximately 0.1 ml each of the suspension are placed into each plate in an equidistant configuration. The plates are then placed in a dark incubator set at 20° C.
D) Test Evaluation--Forty to forty-eight hours later, the lengths of the spore germ tubes are measured using an ocular lens scale on a binocular microscope. Ten germ tubes in a drop are measured and an average determined for that drop. This procedure is repeated for the other two drops. The values for the three drops are then averaged to give the mean for the treatment. Percent inhibition of germination is calculated using the following equation: % Inhibition=(avg. control length--avg. treatment length/avg. control length) X 100.

Row | SMILES | WPM Cur percent disease control [1] [%] | VPM Prot percent disease control ([2]; 10 ppm foliar protectant) [%] | VPM Prot percent disease control ([2]; 20 ppm foliar protectant) [%] | ASC In vitro (A.I.) Activity Index ([3]; 0.1 ppm in water agar) | ASC In vitro (A.I.) Activity Index ([3]; 1.0 ppm in water agar) | VPM Prot percent disease control ([2]; 100 ppm foliar protectant) [%]
1 | C[C@H]1CCC[C@H](c2ccccc2NC(=O)c2cn(C)nc2C(F)F)C1 (relative stereo) [Number 3, 1H-pyrazole-4-carboxamide, 3-(difluoromethyl)-1-methyl-N-[2-(3-methylcyclohexyl)phenyl]-, trans-] | 89 | 34 | 51 | 3 | 3 | –
2 | C[C@@H]1CCC[C@H](c2ccccc2NC(=O)c2cn(C)nc2C(F)F)C1 (relative stereo) [Number 2, 1H-pyrazole-4-carboxamide, 3-(difluoromethyl)-1-methyl-N-[2-(-3-methylcyclohexyl)phenyl]-, cis-] | – | – | 76 | 3 | 3 | 91
